We go through six compounds from US9714249B2 (Novartis AG, priority 2013, dated 2017).

Structures are written as SMILES.

One experiment has as its system THP-1 cells. Put plainly: Cell growth inhibition assay (CellTiter-Glo), THP-1. The class given is cell-based, human. The following applies: THP-1, 4 days; for GI50: Homo sapiens, 96 h, half-maximal growth inhibition; for THP-1 TGI: total growth inhibition. A digest of the protocol:
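Growth of each leukemia line in its own serum-containing medium was measured by CellTiter-Glo ATP luminescence after 4 days at 37 °C with 3-fold serial dilutions starting at 10 μM (0.1% DMSO). Readings were corrected for background and day 0, scaled so that vehicle is 100% and medium-only is −100%, and 4-parameter fits gave IC50 and TGI.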
Background: In ATP-based viability assays light output follows the ATP content of the culture.

The next experiment addresses BRD3 (His-Brd3(20-477)) (Homo sapiens (Human), UniProt Q15059). Put plainly: TR-FRET in-vitro binding assay for BRD3. The following applies: acetyl-histone H4 peptide.

Sequence of BRD3 (His-Brd3(20-477)) (Q15059 20-477, species assumed): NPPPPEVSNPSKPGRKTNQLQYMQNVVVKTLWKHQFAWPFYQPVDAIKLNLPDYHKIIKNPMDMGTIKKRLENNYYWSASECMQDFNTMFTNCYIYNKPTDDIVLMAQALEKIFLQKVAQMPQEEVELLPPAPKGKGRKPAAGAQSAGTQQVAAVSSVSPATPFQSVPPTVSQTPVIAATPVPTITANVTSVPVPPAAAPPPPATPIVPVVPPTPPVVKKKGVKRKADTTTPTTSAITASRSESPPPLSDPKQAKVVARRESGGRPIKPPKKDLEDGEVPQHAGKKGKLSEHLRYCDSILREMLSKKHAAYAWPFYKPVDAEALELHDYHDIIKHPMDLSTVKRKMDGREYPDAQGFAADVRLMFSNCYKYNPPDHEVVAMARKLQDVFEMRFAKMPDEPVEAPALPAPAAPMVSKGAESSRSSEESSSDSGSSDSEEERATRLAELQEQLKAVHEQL

A word on the GI50: it is the concentration that inhibits growth by half. The low end stands for more potent growth inhibition, the high end for less potent growth inhibition. As a reminder, the IC50 is the concentration that gives 50% inhibition. A high value points to weaker potency. Regarding `COc1ncc(-n2nc3c(c2C)C(=O)N(c2cc(C)c(=O)n(C)c2)C3c2ccc(Cl)cc2)cn1` (stereo not drawn) [Example 21b, 6-(4-chlorophenyl)-5-(1,5-dimethyl-6-oxo-1,6-dihydropyridin-3-yl)-2-(2-methoxypyrimidin-5-yl)-3-methyl-5,6-dihydropyrrolo[3,4-c]pyrazol-4(2H)-one], in the experiment on THP-1 cells, it took 209 nM to inhibit growth by half (GI50) and the “THP-1 TGI” value was found to be 396 nM. At BRD3 (His-Brd3(20-477)), this compound registered an IC50 of 94 nM.

For the compound `Cc1cc(N2C(=O)c3c(C4CC4)nn(-c4ccnn4C)c3[C@H]2c2ccc(Cl)cc2)cn(C)c1=O` [Example 22, (R)-6-(4-chlorophenyl)-3-cyclopropyl-5-(1,5-dimethyl-6-oxo-1,6-dihydropyridin-3-yl)-1-(1-methyl-1H-pyrazol-5-yl)-5,6-dihydropyrrolo[3,4-c]pyrazol-4(1H)-one], in the experiment with THP-1 cells, halving of growth (GI50) required 87.4 nM and the “THP-1 TGI” value was determined as 165 nM. On BRD3 (His-Brd3(20-477)), the half-maximal inhibitory concentration (IC50) worked out at 89 nM.

For `Cc1cc(N2C(=O)c3c(C4CC4)n[nH]c3[C@H]2c2ccc(Cl)cc2)cn(C)c1=O` [Example 24, (R)-6-(4-chlorophenyl)-3-cyclopropyl-5-(1,5-dimethyl-6-oxo-1,6-dihydropyridin-3-yl)-5,6-dihydropyrrolo[3,4-c]pyrazol-4(1H)-one], in the experiment on THP-1 cells, halving of growth (GI50) required 29.7 nM and the “THP-1 TGI” value was found to be 62.25 nM. The concentration for half-maximal inhibition (IC50) on BRD3 (His-Brd3(20-477)) was determined as 47 nM.

On to `COc1ncccc1-n1nc(C)c2c1[C@@H](c1ccc(Cl)cc1)N(c1cc(C)c(=O)n(C)c1)C2=O` [Example 25, (R)-6-(4-chlorophenyl)-5-(1,5-dimethyl-6-oxo-1,6-dihydropyridin-3-yl)-1-(2-methoxypyridin-3-yl)-3-methyl-5,6-dihydropyrrolo[3,4-c]pyrazol-4(1H)-one], for which, in the experiment on THP-1 cells, the concentration for 50% growth inhibition (GI50) was 72.7 nM and the “THP-1 TGI” value came to 135.5 nM. The IC50 on BRD3 (His-Brd3(20-477)) was found to be 64 nM.

On to `COc1ncccc1-n1nc2c(c1C)C(=O)N(c1cc(C)c(=O)n(C)c1)[C@@H]2c1ccc(Cl)cc1` [Example 26, (R)-6-(4-chlorophenyl)-5-(1,5-dimethyl-6-oxo-1,6-dihydropyridin-3-yl)-2-(2-methoxypyridin-3-yl)-3-methyl-5,6-dihydropyrrolo[3,4-c]pyrazol-4(2H)-one], for which, in the experiment on THP-1 cells, it took 27.6 nM to inhibit growth by half (GI50) and the “THP-1 TGI” value is 52.4 nM. The same compound showed an IC50 at BRD3 (His-Brd3(20-477)) of 52 nM.

Turning to `Cc1[nH]nc2c1C(=O)N(c1cc(Cl)c(=O)n(C)c1)[C@@H]2c1ccc(Cl)cc1` [Example 28, (R)-5-(5-chloro-1-methyl-6-oxo-1,6-dihydropyridin-3-yl)-6-(4-chlorophenyl)-3-methyl-5,6-dihydropyrrolo[3,4-c]pyrazol-4(2H)-one], in the experiment on THP-1 cells, halving of growth (GI50) required 110 nM and the “THP-1 TGI” value came out at 201.5 nM. Also, the half-maximal inhibitory concentration (IC50) at BRD3 (His-Brd3(20-477)) came to 69 nM.
